Assay results as given in US11819533B2, “Compositions and methods for the treatment of fungal infections” (Cidara Therapeutics, Inc., priority 2017, dated 2023).
“Also recorded” adds a separate entry of the source. Read-outs that look alike come from different tables or passages of the source. Starred links: 1 amine or outer side, 2 acyl side, 3 side chain; linkers in the order of their positions; H or OH if unused. Positions of bridges follow the written chain, without caps; N, C: chain ends. Non-standard residues stand in square brackets, D forms with d. Residues, ends and D or L forms follow the SMILES beside them. *: point of attachment. Orn(4R-OH,5R-OCH2CH2NMe3+) = C[N+](C)(C)CCO[C@@H](N[*:3])[C@H](O)C[C@H](N[*:1])C(=O)[*:2]; pTerphenylCO(4''-OnC5H11) = CCCCCOc1ccc(-c2ccc(-c3ccc(C(=O)*)cc3)cc2)cc1; hTyr(3S-OH,4S-OH) = N[C@H](C(=O)O)[C@H](O)[C@@H](O)c1ccc(O)cc1; Pro(3S-OH,4S-Me) = C[C@H]1CN[C@H](C(=O)O)[C@H]1O; Hyp = O=C(O)[C@@H]1C[C@@H](O)CN1

Columns and labels:
[1] = Solubility of CD101 acetate in various media; assay type: physicochemical
Description: Table 1 below provides the solubility of CD101 acetate in different solutions.

cynomolgus monkeys = experiment: Single-dose intravenous infusion tolerability study; assay type: in vivo
Description: The objective of this study was to evaluate and compare the tolerability of CD101 when administered once by either a 20-minute or 60-minute intravenous infusion to cynomolgus monkeys. In addition, a vehicle similar to the intended initial clinical formulation was assessed when administered once by 20-minute intravenous infusion up to the highest feasible dose (10 mg/kg).
This study was divided into 2 phases (Table 8). In phase 1, CD101 acetate was administered in vehicle-1 (1.25% Tween 80, 5% mannitol, 0.3% glacial acetic acid adjusted to pH 4.5±0.1) as a single 20-minute (±2 minutes) intravenous infusion to 1 animal/sex/group at 0 and 30 mg/kg (Groups 1 and 2, respectively). In addition, CD101 acetate was administered in vehicle-1 as a single 60-minute (±5 minutes) intravenous infusion to 1 animal/sex/group at 0 and 30 mg/kg (Groups 3 and 4, respectively).
Dosing was staggered so that Group 5 was dosed 2 days after Groups 1-4.

[2] = Dropwise addition of CD101 acetate 4 mg/mL solutions to 0.9% saline solution or PBS buffer, observed for drug insolubility; assay type: physicochemical; conditions: 4 mg/mL in 5% dextrose and 0.5% Tween 80, pH 5.4
[3] = PBS buffer drop test (Example 3); assay type: physicochemical
Description: These solutions were tested for solubility in the PBS drop test, which involved adding the solution dropwise into PBS solution (1:4.3 dilution) and visually observing the resulting solution for any precipitation. PBS buffer serves as a surrogate for plasma, and the PBS drop test is used to evaluate the potential for insolubility as the drug enters the bloodstream at the injection site.

Sprague Dawley rats = experiment: 14-day repeat-dose intravenous infusion toxicity study; assay type: in vivo; conditions: for Animals that did not receive ten consecutive days of treatment (Days 5-14): females
Description: The primary purpose of this study was to evaluate the toxicity of CD101 when administered intravenously as a 20-minute infusion into the lateral tail vein of Sprague Dawley rats for fourteen consecutive days. A positive control group (Eraxis®) with a similar structure and pharmacodynamic activity was included in the study design.
The test article, CD101 acetate, was a white to off-white powder. The test article was prepared into dosing formulations for intravenous dose administration. One hundred experimentally naïve Sprague Dawley rats (50 males and 50 females), a minimum of 8 weeks old and weighing 255-318 grams (males) and 192-215 (females) at the outset of the study were assigned to treatment groups as shown in Table 7 below:
All animals were dosed on Days 1 through 3 inclusive. As a result of tail vein irritation observed among all study groups, dose administration was suspended on Day 4 to allow the tails to recover. Dosing resumed on Day 5 and continued for a maximum of ten additional days (Days 5 through 14 inclusive). Animals that could no longer be dosed during this time remained on study.
Male and female Sprague Dawley rats were to receive CD101 acetate at doses of 0, 2, 6 and 20 mg/kg/day (Groups 1, 3, 4 and 5, respectively) or Eraxis® (the positive control article, Group 2) at a dose of 40 mg/kg/day, intravenously as a 20 minute infusion into the left or right lateral tail vein for fourteen consecutive days. During the first three treatment days, all animals were dosed with the first vehicle used on this study (1.75% Tween 80/5% Dextrose: Groups 1 and 3-5; 5% Dextrose: Group 2). As a result of the localized tail swelling observed during the first three days of treatment, study Day 4 served as a drug-free day to alleviate tail vein irritation. Dose administration resumed on Day 5 using a new vehicle (5% Mannitol/2.5% Tween 80/0.3% acetic acid: Groups 1 and 3-5; 5% Mannitol/0.3% acetic acid: Group 2) for the remainder of the treatment period (Days 5-14). Those animals that could no longer be dosed because of severe vein irritation were retained on study, untreated, until the end of the study (Day 15).

Compound: CCCCCOc1ccc(-c2ccc(-c3ccc(C(=O)N[C@H]4C[C@@H](O)[C@@H](OCC[N+](C)(C)C)NC(=O)[C@@H]5[C@@H](O)[C@@H](C)CN5C(=O)[C@H]([C@@H](C)O)NC(=O)[C@H]([C@H](O)[C@@H](O)c5ccc(O)cc5)NC(=O)[C@@H]5C[C@@H](O)CN5C(=O)[C@H]([C@@H](C)O)NC4=O)cc3)cc2)cc1 [CD101 acetate] ({pTerphenylCO(4''-OnC5H11)}-[Orn(4R-OH,5R-OCH2CH2NMe3+)]T[Hyp][hTyr(3S-OH,4S-OH)]T[Pro(3S-OH,4S-Me)]; lactam 1-C)
- solubility ([1]; 15 mM potassium chloride, saline or isotonic, Potassium chloride (15 mM), read-out: Solubility): > 1700 µg/mL
- solubility ([1]; 50 mM acetate buffer with 0.4% Tween 20, aqueous with cosolvent or surfactant or cyclodextrin, 50 mM Acetate buffer pH 4.5 with 0.4% Tween 20, maximum solubility not reached, read-out: Solubility): > 31300 µg/mL
- solubility ([1]; 100 mM lactate buffer, aqueous buffer, Lactate buffer (100 mM), pH 6.5, maximum solubility not reached, read-out: Solubility): > 48000 µg/mL
- solubility ([1]; 100 mM lactate buffer, aqueous buffer, Lactate buffer (100 mM), pH 7.4, maximum solubility not reached, read-out: Solubility): > 51000 µg/mL
- solubility ([1]; 100 mM phosphate buffer, pH 7.4, aqueous buffer, read-out: Solubility): 7 to 10 µg/mL
- solubility ([1]; 150 mM KCl, saline or isotonic, KCl (150 mM), read-out: Solubility): < 200 µg/mL
- solubility ([1]; 150 mM potassium chloride, saline or isotonic, Potassium chloride (150 mM), read-out: Solubility): 160 µg/mL
- solubility ([1]; 0.9% saline with 0.125% Tween 80, aqueous with cosolvent or surfactant or cyclodextrin, 0.9% Saline (USP) with 0.125% Tween 80, read-out: Solubility): > 800 µg/mL
- solubility ([1]; 0.9% saline with 0.5% Tween 80, aqueous with cosolvent or surfactant or cyclodextrin, 0.9% Saline (USP) with 0.5% Tween 80, read-out: Solubility): > 3500 µg/mL
- solubility ([1]; 0.9% saline with 1% Tween 20, aqueous with cosolvent or surfactant or cyclodextrin, 0.9% Saline (USP) with 1% Tween 20, maximum solubility not reached, read-out: Solubility): > 2600 µg/mL
- solubility ([1]; 0.9% saline with 2.5% Tween 80, aqueous with cosolvent or surfactant or cyclodextrin, 0.9% Saline (USP) with 2.5% Tween 80 (polysorbate 80), read-out: Solubility): > 3500 µg/mL
- solubility ([1]; 0.9% saline with 4% dodecylmaltoside and 1% Tween 20, aqueous with cosolvent or surfactant or cyclodextrin, 0.9% Saline Solution (USP), 4% dodecylmaltoside (DDM), 1% Tween 20, maximum solubility not reached, read-out: Solubility): > 10000 µg/mL
- solubility ([1]; 0.9% saline with 7% tetradecylmaltoside, aqueous with cosolvent or surfactant or cyclodextrin, 0.9% Saline Solution (USP), 7% tetradecylmaltoside (TDM), maximum solubility not reached, read-out: Solubility): > 11000 µg/mL
- Solubility in words ([1]; PBS buffer): nearly insoluble
- solubility ([1]; PBS buffer with 2.5% Tween 80, pH 7.4, aqueous with cosolvent or surfactant or cyclodextrin, read-out: Solubility): > 4000 µg/mL
- solubility ([1]; Water (USP), maximum solubility not reached, read-out: Solubility): > 100000 µg/mL
- solubility ([1]; aqueous buffer, 100 mM Tris buffer, pH 7.4, maximum solubility not reached, read-out: Solubility): > 52000 µg/mL
- solubility ([1]; aqueous buffer, 1:10 diluted PBS buffer, pH 7.4, maximum solubility not reached, read-out: Solubility): > 2100 µg/mL
- solubility ([1]; aqueous buffer, 5% Citric Acid, maximum solubility not reached, read-out: Solubility): > 18600 µg/mL
- solubility ([1]; aqueous buffer, 50-100 mM Acetate buffer, pH 4.5, maximum solubility not reached, read-out: Solubility): > 45000 µg/mL
- solubility ([1]; aqueous buffer, Phosphate buffered saline (PBS buffer), pH 7.4, read-out: Solubility): 5 to 7 µg/mL
- solubility ([1]; aqueous with cosolvent or surfactant or cyclodextrin, 0.3% acetic acid, 5% mannitol, 2.5% Tween 80, pH 4.5, maximum solubility not reached, read-out: Solubility): > 15000 µg/mL
- solubility ([1]; aqueous with cosolvent or surfactant or cyclodextrin, 0.85% Tween 80 in PBS buffer, pH 7.4, maximum solubility not reached, read-out: Solubility): > 4100 µg/mL
- solubility ([1]; aqueous with cosolvent or surfactant or cyclodextrin, 2.5% Tween 80, 5% mannitol, 0.3% acetic acid, pH 4.5, maximum solubility not reached, read-out: Solubility): > 16000 µg/mL
- solubility ([1]; aqueous with cosolvent or surfactant or cyclodextrin, Lactated Ringer's Solution for Injection (USP), prepared from stock in USP water with 0.7% Tween 20, maximum solubility not reached, read-out: Solubility): > 800 µg/mL
- solubility ([1]; aqueous with cosolvent or surfactant or cyclodextrin, PBS buffer with 1% Tween 20, pH 7.4, maximum solubility not reached, read-out: Solubility): > 370 µg/mL
- solubility ([1]; saline or isotonic, 0.09% Saline, maximum solubility not reached, read-out: Solubility): > 1400 µg/mL
- solubility ([1]; saline or isotonic, 0.225% Saline (USP), maximum solubility not reached, read-out: Solubility): > 1200 µg/mL
- solubility ([1]; saline or isotonic, 0.45% Saline (USP), maximum solubility not reached, read-out: Solubility): > 1300 µg/mL
- solubility ([1]; saline or isotonic, 0.9% Saline (USP), read-out: Solubility): < 180 µg/mL
- solubility ([1]; saline or isotonic, 5% D-Mannitol, maximum solubility not reached, read-out: Solubility): > 4000 µg/mL
- solubility ([1]; saline or isotonic, 5% Dextrose Solution (USP), maximum solubility not reached, read-out: Solubility): > 12000 µg/mL
- solubility ([1]; saline or isotonic, 5% dextrose, 5% mannitol and 0.22%-0.45% Sterile Saline Solution, read-out: Solubility (soluble)): > 1000 µg/mL
- solubility ([1]; saline or isotonic, Lactated Ringer's Solution for Injection (USP), read-out: Solubility): < 100 µg/mL
- Tolerability in vehicle similar to intended clinical formulation (cynomolgus monkeys; 10 mg/kg (highest feasible dose), 20-minute IV infusion in vehicle-2 (0.50% Tween 80, 0.76% mannitol, 0.125% sodium lactate in 3.5% dextrose, pH 5.5)): can be administered safely
- Tolerability of 20-minute versus 60-minute infusion (cynomolgus monkeys; single IV infusion 30 mg/kg in vehicle-1 (1.25% Tween 80, 5% mannitol, 0.3% glacial acetic acid, pH 4.5)): no differences that could be attributed to the duration of infusion; also recorded: no differences between the tolerability of a 20-minute and 60-minute infusion
- Clinical observations (cynomolgus monkeys; single IV infusion, 30 mg/kg in vehicle-1 (20 or 60 min) or 10 mg/kg in vehicle-2 (20 min)): No other remarkable clinical observations
- Appearance after 1.5 mL added to (A) 5 mL 0.9% saline solution [2]: clear
- Appearance upon PBS drop test ([3]; 0.3% acetic acid, 1.25% Tween 80 and 5% mannitol, pH 4.5, 6.0 mg/mL, 1.4 mg/mL in PBS): Clear
- Appearance upon PBS drop test ([3]; 0.3% acetic acid, 2.5% Tween 80 and 5% mannitol, pH 4.5, 4 mg/mL, 0.92 mg/mL in PBS): Clear
- Appearance upon PBS drop test ([3]; 0.3% acetic acid, 2.5% Tween 80 and 5% mannitol, pH 4.5, 6.0 mg/mL, 1.4 mg/mL in PBS): Clear
- Appearance upon PBS drop test ([3]; 0.3% acetic acid, 2.5% Tween 80 and 5% mannitol, pH 4.5, 8.0 mg/mL, 1.8 mg/mL in PBS): Clear
- Appearance upon PBS drop test ([3]; 0.9% Saline, pH 5.3, 2.8% Tween 80, 4 mg/mL): Clear
- Appearance upon PBS drop test ([3]; 0.9% Saline, pH 6.6, 2.5% Tween 80, 4 mg/mL): Clear
- Appearance upon PBS drop test ([3]; 0.9% Saline, pH 7.2, 1.75% Tween 80, 4 mg/mL): Clear
- Appearance upon PBS drop test ([3]; 0.9% Saline, pH 7.2, 2.5% Tween 80, 4 mg/mL): Clear
- Appearance upon PBS drop test ([3]; 0.9% Saline, reverse addition (CD101 acetate and Tween 80 mixed first, then saline added), 1.75% Tween 80, 4 mg/mL): Clear
- Appearance upon PBS drop test ([3]; 5% Mannitol/25 mM Na Acetate, pH 4.63, 2.5% Tween 80, 4 mg/mL): Clear
- Appearance upon PBS drop test ([3]; 5% Mannitol/30 mM Na Lactate, pH 5.45, 2.5% Tween 80, 4 mg/mL): Clear
- Appearance upon PBS drop test ([3]; 5% Mannitol/0.3% Acetic Acid, pH 3.54, 2.5% Tween 80, 4 mg/mL): Clear
- Appearance upon PBS drop test ([3]; PBS buffer pH 7.4, pH 7.13, 1.75% Tween 80, 4 mg/mL): Clear
- Incidence of tail vein irritation (Sprague Dawley rats; Days 1-3, first vehicle (1.75% Tween 80 and 5% Dextrose for CD101 acetate; 5% Dextrose for Eraxis), Eraxis 40 mg/kg/day, CD101 acetate 6 and 20 mg/kg/day, males and females): highest
- Vein irritation compared to Groups 1, 3 and 4 (Sprague Dawley rats; Days 5-14, second vehicle (5% Mannitol, 2.5% Tween 80, 0.3% Acetic Acid for CD101 acetate; 5% Mannitol and 0.3% Acetic Acid for Eraxis), Eraxis 40 mg/kg/day, CD101 acetate 20 mg/kg/day): only marginally higher
- Animals that did not receive ten consecutive days of treatment (Days 5-14) (Sprague Dawley rats; high dose 20 mg/kg/day (Group 5), second vehicle 5% Mannitol/2.5% Tween 80/0.3% acetic acid): 90%
- Animals that did not receive ten consecutive days of treatment (Days 5-14) (Sprague Dawley rats; low dose 2 mg/kg/day (Group 3), second vehicle 5% Mannitol/2.5% Tween 80/0.3% acetic acid): 10%
- Animals that did not receive ten consecutive days of treatment (Days 5-14) (Sprague Dawley rats; mid-dose 6 mg/kg/day (Group 4), second vehicle 5% Mannitol/2.5% Tween 80/0.3% acetic acid): 10%
- Animals dosed for less than the intended ten-day duration (Days 5-14) as a result of tail swelling/lesions (Sprague Dawley rats; males, high dose 20 mg/kg/day (Group 5), second vehicle 5% Mannitol/2.5% Tween 80/0.3% acetic acid): 30%
